Test results from paper PMC10829512, “Transport of metformin metabolites by guanidinium exporters of the small multidrug resistance family” (The Journal of General Physiology, 2024).

Key:
Fluc-Bpe = Fluc-Bpe (Bordetella pertussis, UniProt Q7VYU0); test: SSM electrophysiology cross-reactivity control with individually reconstituted Fluc-Bpe; assay type: biochemical
Method: SSM experiments were performed using SURFE^2R N1 instrument (Nanion Technologies). Sensors were prepared with a 1,2-diphytanoyl-sn-glycero-3-phosphocholine (DPhPC) lipid monolayer according to published protocols ([Bazzone et al., 2017]). Each sensor’s capacitance and conductance were verified before use (<80 nF capacitance, <50 nS conductance) using Nanion software protocols. Proteoliposome stock was diluted 1:25 in assay buffer (100 mM KCl, 100 mM KPO4, pH 7.5) prior to adsorption to the DPhPC monolayer. For substrate screening experiments, reference substrate samples (Gdm^+ for SMRGdx, and TPA^+ for SMRQac) were checked periodically to test for the stability of the sensor; if the current amplitude of the reference compound differed by >10% on one sensor, it indicated the desorption of liposomes, and the sensor was not used for further experiments. For every SSM electrophysiology experiment, we used the same general solution exchange protocol: after 2 s perfusion with a non-activating solution, we perfused substrate-containing buffer for 2 s and then returned to the equilibrium condition with a 4 s perfusion of non-activating buffer. […]
The adsorption of proteoliposomes to the sensor is subject to considerable variability from experiment to experiment, so the current measurements from different sensors cannot be quantitatively compared ([Barthmes et al., 2016]). […]

Gdx-Clo [1] = target: T1, Gdx-Clo (Clostridiales bacterium oral taxon 876, UniProt U2EQ00); test: Pyranine stoichiometry assay in proteoliposomes; assay type: biochemical, Clostridales oral taxon 876; conditions: 10-fold substrate gradient, equilibrium at −60 mV
T1 sequence (U2EQ00 1-105): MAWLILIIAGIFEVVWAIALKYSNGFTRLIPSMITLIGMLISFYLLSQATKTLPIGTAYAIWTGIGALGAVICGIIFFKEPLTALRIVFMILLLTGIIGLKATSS
Method: Unilamellar liposomes were formed by extrusion through a 400-nm membrane filter and the external pyranine was removed by passing liposomes through a Sephadex G-50 column spin column equilibrated in an internal buffer with substrate. The external assay buffers contained 25 mM HEPES, pH 7.53, 0.4 mM substrate, and varying KCl concentration (3–46 mM) to establish the membrane potential, with NaCl to bring the total salt concentration to 200 mM. Proteoliposomes were diluted 200-fold into the external buffer, and after ∼30 s to establish a baseline, valinomycin (final concentration 0.2 ng/ml) was added together with the substrate (final concentration 4 mM). Fluorescence spectra were monitored (λex = 455 nm; λem = 515 nm) for ∼300 s. The membrane potential was calculated using the Nernst potential for K^+: ψcalc=RT/Fln[K^+]out/[K^+]in. (1)
Fluorescence emission time courses were corrected for baseline drift measured prior to substrate and valinomycin addition. The stoichiometry was determined from the voltage at which electrochemical equilibrium occurred (no change in fluorescence over time) using the following equation: Erev=(n/m−n*RT/Fln[substrate^+]in/[substrate^+]out), (2) where n and m represent the stoichiometric coefficients of substrate and protons, respectively. […]

Gdx-Clo [2] = target: T1, Gdx-Clo; test: Isothermal titration calorimetry (ITC); assay type: binding, Clostridales oral taxon 876; conditions: for n: ITC binding stoichiometry, pH 8.5, mean ± SEM; for Kd / TΔS / ΔG / ΔH / Binding stoichiometry: ITC; for Kd / TΔS / ΔG / ΔH: pH 8.5, 25°C, mean ± SEM; for Binding stoichiometry: pH 8.5, exothermic binding
Method: ITC experiments were conducted using a low-volume Nano ITC instrument (TA Instruments). […] For each experiment, 300 µl of 700 µM Gdx-Clo was loaded in the sample chamber maintained at 25°C with 350 rpm stirring speed. […] The sample was titrated (0.75 µl injections) at 100-s increments. Once an acceptable baseline slope was achieved (0.30 µW/h and 0.03 µW standard deviation), a 200 s baseline (∼112 µW) was taken prior to beginning titrations. Data were analyzed using NanoAnalyze software.
For both substrates, the Kd value measured using ITC was in good agreement with the Kd value obtained using tryptophan fluorescence, validating the tryptophan fluorescence approach to monitor substrate binding.

Sequence of Fluc-Bpe (Q7VYU0 whole entry): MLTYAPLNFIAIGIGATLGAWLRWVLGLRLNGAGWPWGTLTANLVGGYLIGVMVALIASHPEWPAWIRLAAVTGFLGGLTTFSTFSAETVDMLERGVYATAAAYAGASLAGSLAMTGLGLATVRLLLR

Row | SMILES | Response of Fluc-Bpe to substrate perfusion (Fluc-Bpe) | Proton coupling stoichiometry (Gdx-Clo [1]) | n (Gdx-Clo [2]) | Kd (Gdx-Clo [2]) [µM] | TΔS (Gdx-Clo [2]) [kcal/mol] | ΔG (Gdx-Clo [2]) [kcal/mol] | ΔH (Gdx-Clo [2]) [kcal/mol] | Binding stoichiometry (Gdx-Clo [2])
1 | N=C(N)N [Gdm^+, guanidinium] | do not elicit a response | 2 H^+: 1 solute | 0.56 ± 0.04 | 410 ± 40 | -0.3 ± 0.9 | -4.6 ± 0.1 | -4.9 ± 1.0 | ~1 substrate per protein dimer
2 | N=C(N)NC(N)=O [Guanylurea, guanylurea] | do not elicit a response | 2 H^+: 1 solute | 0.43 ± 0.03 | 140 ± 30 | -1.8 ± 0.6 | -5.4 ± 0.06 | -7.2 ± 0.6 | ~1 substrate per protein dimer
